Experimental data published in patent US20180296532A1, “RNA-Focused Small Molecules for Inhibiting RNA Toxicity in Myotonic Dystrophy” (The Scripps Research Institute, priority 2015, published 2018).

Experiments:
r(CUG)109 = assay: Competition dialysis with various RNAs and MBNL1; format: binding; conditions: for loading onto r(CUG)109: 5 μM small molecule
Procedure: The selectivities of compounds 1, 16, and 17 were measured by competition dialysis using various RNA and protein targets. RNA targets included a mimic of the human rRNA A-site, the MBNL1-binding site in the cTNT pre-mRNA, an RNA with GC base pairs, and RNAs with different numbers of r(CUG) repeats (r(CUG)1×2, r(CUG)6×2, and r(CUG)109, an expanded repeat of a length causative of disease^(23)) (FIG. 3A). […] Binding to MBNL1 was also evaluated to assess the propensity of the compounds to bind MBNL1 over r(CUG)^exp.
Competition dialysis was performed using Pierce Slide-A-Lyzer MINI dialyzer units with a 3,500 Da molecular weight cutoff. The RNAs evaluated were folded by heating an 8 μM solution of RNA in 199 μL 1× Dialysis Buffer (8 mM NaH2PO4, pH 7.2, 185 mM NaCl and 1 mM EDTA) at 65° C. for 5 min followed by slowly cooling to room temperature on the bench top. Then, 1 μL of 1 mM small molecule was added (5 μM final concentration), and the solution was transferred to the dialyzer units (100 μL samples in duplicate). The dialyzer units were then placed in 150 mL of 5 μM small molecule in 1× Dialysis Buffer and stirred at 200 rpm at 4° C. for 48 h. Following equilibration, 90 μL of each sample was transferred to a microcentrifuge tube and treated with 10 μL of 10% SDS to dissociate the ligand. The total ligand concentration (Ct) within each dialysis unit was quantified spectrophotometrically using the appropriate absorbance wavelength and extinction coefficient for each compound. […] The bound ligand concentration (Cb) was then determined using equation 1: […]
where Cb, Ct, and Cf are concentrations of bound, total, and free ligand, respectively.

r(CUG)960 = assay: Competitive ChemCLIP (C-ChemCLIP) target pull-down with 2H-4-CA-Biotin, qRT-PCR; format: cell-based; conditions: HeLa cells with DM1 mini-gene; 100 nM 2H-4-CA-Biotin and 10 μM compound
Procedure: The biological targets of Formula (I) compounds were further investigated by using Competitive ChemCLIP (C-ChemCLIP) (FIG. 4B).(48, 49) In ChemCLIP, an RNA-binding compound is appended with: (i) a reactive module (chlorambucil; CA) that cross-links to the RNAs that the small molecule binds in cellulo; and (ii) a biotin moiety for facile pull-down and isolation of those targets.^(49) The pulled-down fraction is then analyzed by qRT-PCR. In this particular application, we used C-ChemCLIP using a previously studied compound, 2H-4-CA-Biotin, that binds and cross-links to r(CUG)^exp in cellulo.^(49) If exemplary Formula (I) compounds also engage r(CUG)^exp in cellulo, then the amount of the RNA pulled down by 2H-4-CA-Biotin should decrease as a function of 1, 16, or 17 concentration.
Cells were transfected with 10 μg of plasmid expressing the DM1 mini-gene using Lipofectamine 2000 (Invitrogen) according to the manufacturer's standard protocol. […] After 20-24 h, the cells were lysed and total RNA was harvested using Trizol reagent (Ambion) according to the manufacturer's protocol. Approximately 30 μg of total RNA was used for pull-down using 15 nmoles of streptavidin-agarose beads (Sigma-Aldrich; 15 μg/mL biotin loading) as previously described.^(49) The lysate was incubated with the beads for 1 h at room temperature with shaking at 500 rpm. The solution was removed, and the beads were washed with 500 μL aliquots of 1×PBS. Bound material was released from the beads by heating at 95° C. for 5 min in 30 μL of 95% formamide containing 10 mM EDTA, pH 8.2.
Reverse transcription reactions were carried out using qScript cDNA synthesis kit by adding ˜60 ng of either total RNA or captured RNA according to the manufacturer's protocol. Then, 30% of each cDNA sample was used for quantitative real time PCR (qPCR) analysis for each primer set. qPCR was performed on a 7900HT Fast Real-Time PCR System (Applied Biosystems) using Power SYBR Master Mix (Life Technologies). The PCR primers for the DM1/DMPK mini-gene mRNA were 5′-CGTGCAAGCGCCCAG (forward) and 5′-[…] (reverse). The PCR primers for 18S ribosomal RNA were 5′-[…] (forward) and 5′-[…] (reverse).
Cells were transfected with 10 μg of plasmid expressing the DM1 mini-gene using Lipofectamine 2000 (Invitrogen) according to the manufacturer's standard protocol. […]
Reverse transcription reactions were carried out using qScript cDNA synthesis kit by adding 150 ng of either total RNA or captured RNA according to the manufacturer's protocol. Then, 30% of each cDNA sample was used for quantitative real time PCR (qPCR) analysis for each primer set. qPCR was performed on a 7900HT Fast Real-Time PCR System (Applied Biosystems) using Power SYBR Master Mix (Life Technologies). […]

HeLa cells = assay: WST-1 toxicity assay in the DM1 splicing cell model; format: cell-based; conditions: WST-1, 24 h treatment
Procedure: The toxicities of 1, 16, and 17 were assessed using our model system for DM1 pre-mRNA splicing defects as described above. After treatment with compound for 24 h, the cells were washed with 1×DPBS and treated with 100 μL of a 10% solution of WST-1 reagent (Roche) in growth medium. Cells were incubated with this solution for 30 min at 37° C. and then 60 μL aliquots were transferred to a 96-well plate. The absorbance at 450 nm and 690 nm was measured using a Molecular Devices SpectraMax M5 plate reader.

SMILES	selectivity of binding for r(CUG) repeat RNAs versus other RNAs and MBNL1 (r(CUG)109; targets at 8 μM)	amount of r(CUG)^exp pulled down by 2H-4-CA-Biotin (r(CUG)960)	cell viability (HeLa cells)	loading onto r(CUG)109 (r(CUG)109; targets at 8 μM)	loading on r(CUG)109 relative to r(CUG)6×2 (r(CUG)109)
N=C(N)Nc1ccc2nc(-c3ccc(-c4nc5ccc(NC(=N)N)cc5[nH]4)cc3)[nH]c2c1 [Compound 2GN8]	selectively binds r(CUG)^exp containing RNAs	reduced by half	–	–	–
O=C(Nc1ccc(-c2nc3cc(NC(=O)c4ccco4)ccc3[nH]2)cc1)c1ccco1 [Compound 16]	–	significantly reduced	do not affect cell viability	lowest loading	–
O=C(Nc1ccc(-c2nc3ccccc3[nH]2)cc1)c1ccc(-c2ccc(Cl)cc2)o1 [Compound 17]	–	significantly reduced	do not affect cell viability	highest loading	~14 fold
